{"source": "PubChem BioAssay (NCI)", "test_in_all_cases": "NCI anticancer screen, dose series, 48 h", "key": {"[1]": {"test_system": "UO-31 renal"}, "[2]": {"test_system": "NCI-H460 lung"}, "[3]": {"test_system": "HCC-2998 colon"}, "[4]": {"test_system": "UACC-257 melanoma"}, "[5]": {"test_system": "CAKI-1 renal"}, "[6]": {"test_system": "U251 CNS"}, "[7]": {"test_system": "HL-60(TB) leukemia"}, "[8]": {"test_system": "MDA-MB-231 breast"}, "[9]": {"test_system": "HCT-15 colon"}, "[10]": {"test_system": "T-47D breast"}, "[11]": {"test_system": "SF-268 CNS"}, "[12]": {"test_system": "HT29 colon"}, "[13]": {"test_system": "SK-MEL-28 melanoma"}, "[14]": {"test_system": "RPMI-8226 leukemia"}, "[15]": {"test_system": "BT-549 breast"}, "[16]": {"test_system": "KM12 colon"}, "[17]": {"test_system": "ACHN renal"}, "[18]": {"test_system": "MDA-MB-435"}, "[19]": {"test_system": "NCI-H522 lung"}, "[20]": {"test_system": "EKVX NSCLC"}, "[21]": {"test_system": "TK-10 renal"}, "[22]": {"test_system": "OVCAR-5 ovarian"}, "[23]": {"test_system": "SK-OV-3 ovarian"}, "[24]": {"test_system": "NCI/ADR-RES ovarian"}, "[25]": {"test_system": "A549 NSCLC"}, "[26]": {"test_system": "OVCAR-3 ovarian"}, "[27]": {"test_system": "SF-539 CNS"}, "[28]": {"test_system": "SW-620 colon"}, "[29]": {"test_system": "DU-145 prostate"}, "[30]": {"test_system": "LOX IMVI melanoma"}}, "note": "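These data come from cells grown in 96-well plates and exposed to compound for 48 hours at five concentrations. GI50 = concentration required for 50% inhibition of growth. TGI denotes the concentration required for complete inhibition of growth.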"}
{"molecule": "CCN1C(=O)N(CC)C2NNC(Sc3c(C(=O)O)c4ccccc4n(C4CCCC4)c3=O)=NC21", "note": "(centres undefined)", "values": [{"measurement": "TGI", "setting": "[1]", "result": 22.9, "unit": "µM"}, {"measurement": "GI50", "setting": "[2]", "result": 2.6, "unit": "µM"}, {"measurement": "TGI", "setting": "[2]", "result": 10.7, "unit": "µM"}, {"measurement": "GI50", "setting": "[3]", "result": 2.84, "unit": "µM"}, {"measurement": "TGI", "setting": "[3]", "result": 9.8, "unit": "µM"}, {"measurement": "GI50", "setting": "[4]", "result": 7.65, "unit": "µM"}, {"measurement": "TGI", "setting": "[4]", "result": 28.2, "unit": "µM"}, {"measurement": "GI50", "setting": "[5]", "result": 3.97, "unit": "µM"}, {"measurement": "TGI", "setting": "[5]", "result": 16.5, "unit": "µM"}, {"measurement": "GI50", "setting": "[6]", "result": 3.66, "unit": "µM"}, {"measurement": "TGI", "setting": "[6]", "result": 15.3, "unit": "µM"}, {"measurement": "GI50", "setting": "[7]", "result": 2.35, "unit": "µM"}, {"measurement": "TGI", "setting": "[7]", "result": 6.86, "unit": "µM"}, {"measurement": "GI50", "setting": "[8]", "result": 3.03, "unit": "µM"}, {"measurement": "TGI", "setting": "[8]", "result": 11.5, "unit": "µM"}, {"measurement": "GI50", "setting": "[9]", "result": 2.85, "unit": "µM"}, {"measurement": "TGI", "setting": "[9]", "result": 11.2, "unit": "µM"}, {"measurement": "GI50", "setting": "[10]", "result": 7.2, "unit": "µM"}, {"measurement": "TGI", "setting": "[10]", "result": 72.7, "unit": "µM"}, {"measurement": "GI50", "setting": "[11]", "result": 4.47, "unit": "µM"}, {"measurement": "TGI", "setting": "[11]", "result": 45.4, "unit": "µM"}, {"measurement": "GI50", "setting": "[12]", "result": 3.13, "unit": "µM"}, {"measurement": "TGI", "setting": "[12]", "result": 10.5, "unit": "µM"}, {"measurement": "GI50", "setting": "[13]", "result": 6.95, "unit": "µM"}, {"measurement": "TGI", "setting": "[13]", "result": 25.7, "unit": "µM"}, {"measurement": "GI50", "setting": "[14]", "result": 4.17, "unit": "µM"}, {"measurement": "TGI", "setting": "[14]", "result": 25.9, "unit": "µM"}, {"measurement": "GI50", "setting": "[15]", "result": 9.6, "unit": "µM"}, {"measurement": "TGI", "setting": "[15]", "result": 24.4, "unit": "µM"}, {"measurement": "GI50", "setting": "[16]", "result": 3.3, "unit": "µM"}, {"measurement": "TGI", "setting": "[16]", "result": 16.9, "unit": "µM"}, {"measurement": "GI50", "setting": "[17]", "result": 4.36, "unit": "µM"}, {"measurement": "TGI", "setting": "[17]", "result": 16.3, "unit": "µM"}, {"measurement": "GI50", "setting": "[18]", "result": 1.47, "unit": "µM"}, {"measurement": "TGI", "setting": "[18]", "result": 3.85, "unit": "µM"}, {"measurement": "GI50", "setting": "[19]", "result": 1.54, "unit": "µM"}, {"measurement": "TGI", "setting": "[19]", "result": 3.74, "unit": "µM"}, {"measurement": "GI50", "setting": "[20]", "result": 4.69, "unit": "µM"}, {"measurement": "TGI", "setting": "[20]", "result": 27.4, "unit": "µM"}, {"measurement": "GI50", "setting": "[21]", "result": 10.3, "unit": "µM"}, {"measurement": "TGI", "setting": "[21]", "result": 31.3, "unit": "µM"}, {"measurement": "GI50", "setting": "[22]", "result": 4.09, "unit": "µM"}, {"measurement": "TGI", "setting": "[22]", "result": 22.1, "unit": "µM"}, {"measurement": "GI50", "setting": "[23]", "result": 3.35, "unit": "µM"}, {"measurement": "TGI", "setting": "[23]", "result": 20.8, "unit": "µM"}, {"measurement": "GI50", "setting": "[24]", "result": 1.92, "unit": "µM"}, {"measurement": "TGI", "setting": "[24]", "result": 4.42, "unit": "µM"}, {"measurement": "GI50", "setting": "[25]", "result": 4.04, "unit": "µM"}, {"measurement": "TGI", "setting": "[25]", "result": 17.8, "unit": "µM"}, {"measurement": "GI50", "setting": "[26]", "result": 3.21, "unit": "µM"}, {"measurement": "TGI", "setting": "[26]", "result": 12.8, "unit": "µM"}, {"measurement": "GI50", "setting": "[27]", "result": 2.14, "unit": "µM"}, {"measurement": "TGI", "setting": "[27]", "result": 5.51, "unit": "µM"}, {"measurement": "GI50", "setting": "[28]", "result": 3.3, "unit": "µM"}, {"measurement": "TGI", "setting": "[28]", "result": 17.1, "unit": "µM"}, {"measurement": "GI50", "setting": "[29]", "result": 3.91, "unit": "µM"}, {"measurement": "TGI", "setting": "[29]", "result": 18.3, "unit": "µM"}, {"measurement": "GI50", "setting": "[30]", "result": 3.87, "unit": "µM"}, {"measurement": "TGI", "setting": "[30]", "result": 16.2, "unit": "µM"}]}
